From publication PMC8448162, “Single- and Multiple-Ascending-Dose Study of the Safety, Tolerability, and Pharmacokinetics of the Polymyxin Derivative SPR206” (Antimicrobial Agents and Chemotherapy, 2021)
Positions of bridges follow the written chain, without caps; N, C: chain ends. Non-standard residues stand in square brackets, D forms with d. Residues, ends and D or L forms follow the SMILES beside them. *: point of attachment. X1 = NC[C@@H](CC(=O)*)c1cccc(Cl)c1; Dab = NCC[C@H](N)C(=O)O; Dap = NC[C@H](N)C(=O)O

Legend:
[1] = clinical; conditions: human, in vivo; for CL renal: CLR (renal clearance)
Experimental: Maximum plasma concentration (Cmax), area under the concentration-time curve from time zero to last measurable time point (AUC0–t), area under the concentration-time curve from time zero to infinity (AUC0–inf), area under the concentration-time curve from time zero to tau (AUC0–tau), time to maximum concentration (Tmax), terminal elimination rate constant (kel), terminal half-life (t1/2), terminal clearance (CL), and volume of distribution (Vz) were determined. In addition, area under the concentration-time curve from 0 to 24 h after the start of infusion (AUC0–24) was determined for the SAD phase, and area under the concentration-time curve from time zero to 8 h from start of infusion (AUC0–8) on day 1 and 0 to 48 h (AUC0–48) following the last dose on day 14 as well as predose trough concentrations were determined for the MAD phase. Urine parameters included cumulative amount of drug excreted in successive urine intervals (Ae), renal clearance (CLR), fraction of cumulative fraction of dose recovered in urine as unchanged drug (Fe), and percentage fraction of cumulative fraction of dose recovered in urine as unchanged drug (Fe%). PK parameters were determined by noncompartmental analysis using Phoenix WinNonlin 8.1.
For the SAD phase, blood samples were obtained predose and at 30, 60, 75, 90, 105, 120, and 150 min and at 3, 5, 8, 12, and 24 h following the start of infusion. Urine was collected for PK assessment predose and over the intervals of 0 to 4 h, 4 to 8 h, 8 to 12 h, and 12 to 24 h after the start of infusion.
(§1) In the MAD phase, plasma samples for PK analysis were collected (i) on day 1—pre-dose and at 30, 60, 75, 90, 105, 120, and 150 min and at 3, 5, and 8 h following start of the first infusion; (ii) prior to the morning dose (within 10 min) on days 2, 3, 5, 7, 9, 11, and 13; and (iii) predose and 30, 75, 90, 105, 120, and 150 min and 3, 5, 8, and 12 h (day 14), 24, 36 (day 15), and 48 h (day 16) following start of the last infusion. Urine was collected for PK assessment on day 1 predose, over the intervals 0 to 4 h and 4 to 8 h after start of first infusion, and on days 14 and 15 over the intervals 0 to 4 h, 4 to 8 h, 8 to 12 h, and 12 to 24 h after start of day 14 infusion. Total 24-h urine for calculating CrCl was collected from the morning of day −1 to predose on day 1 and on days 15 and 16 over the interval from 24 to 48 h after the start of the day 14 infusion. Urine creatinine concentrations were measured using 24-h collections prior to the first dose on day 1 and over the 24 to 48 h following start of infusion of the last dose (day 14). Plasma and urine samples for SPR206 levels were analyzed using a validated liquid chromatography-tandem mass spectrometry (LC-MS/MS) method. The assay range for SPR206 was 50 to 5,000 ng/ml in plasma and 100 to 50,000 ng/ml in urine. In plasma, assay precision was 1.3 to 7.7%, accuracy was 1.2 to 9.5%, stability was 194 h at 4°C, and reproducibility was 98.4%. In urine, assay precision was 1.7 to 7.5%, accuracy was −4.8 to 7.3%, stability was 147 h at 4°C, and reproducibility was 97.8%.

[2] = format: in vitro ADME
Experimental: as §1, with “In plasma, assay precision was 1.3 to 7.7%, accuracy was 1.2 to 9.5%, stability was 194 h at 4°C, and reproducibility was 98.4%. In urine, assay precision was 1.7 to 7.5%, accuracy was −4.8 to 7.3%, stability was 147 h at 4°C, and reproducibility was 97.8%.” left out

## CC(C)C[C@@H]1NC(=O)[C@@H](Cc2ccccc2)NC(=O)[C@H](CCN)NC(=O)[C@@H](NC(=O)[C@H](CN)NC(=O)[C@@H](NC(=O)C[C@H](CN)c2cccc(Cl)c2)[C@@H](C)O)CCNC(=O)[C@H]([C@@H](C)O)NC(=O)[C@H](CCN)NC(=O)[C@H](CCN)NC1=O [SPR206] (X1-T[Dap][Dab][Dab][dF]L[Dab][Dab]T; lactam 3-C (inferred))
[1]; 10 mg
  CL renal: 0.567 mL/min
[1]; 25 mg
  CL renal: 4 mL/min
[1]; 50 mg
  CL renal: 13.7 mL/min
[1]; 100 mg
  CL renal: 25.8 mL/min
[1]; 150 mg
  CLR (renal clearance): 1.55 ± 0.17 L/h
  CL renal: 35.5 mL/min
[1]; 200 mg
  CL renal: 29.5 mL/min
[1]; 300 mg
  CL renal: 35.5 mL/min
[1]; 400 mg
  CL renal: 32.8 mL/min
[1]; iv, 25 mg
  Fe (%): 5.32 ± 4.38%
  Fe (fraction of dose recovered in urine as unchanged drug): 0.05 ± 0.04
[1]; iv, 50 mg
  Fe (fraction of dose recovered in urine as unchanged drug): 0.18 ± 0.02
[1]; iv, 100 mg
  Fe (fraction of dose recovered in urine as unchanged drug): 0.27 ± 0.05
[1]; iv, 200 mg, Fe (%)
  dose excreted: 35.7 ± 3.85%
[1]; iv, 200 mg, Fe (fraction of dose recovered in urine as unchanged drug)
  dose excreted: 36 ± 4%
[1]; iv, 300 mg, Fe (fraction of dose recovered in urine as unchanged drug)
  dose excreted: 49 ± 8%
[1]; iv, 400 mg, Fe (%)
  dose excreted: 53.4 ± 6.21%
[1]; iv, 400 mg, Fe (fraction of dose recovered in urine as unchanged drug)
  dose excreted: 53 ± 6%
[2]
  stability in urine: 147 h
[2]; plasma
  stability in plasma: 194 h
